Reference: the supplement of paper PMC10307832

Compound: CCCS(=O)(=O)Nc1ccc(F)c(C(=O)c2c[nH]c3ncc(-c4ccc(Cl)cc4)cc23)c1F [Vemurafenib] + Cc1nc(Nc2ncc(C(=O)Nc3c(C)cccc3Cl)s2)cc(N2CCN(CCO)CC2)n1 [Dasatinib] (partner 0.075 µM)
Assay: relative viability (nuclei count vs DMSO), 5 days (fraction); higher = more cells survive
Conditions: first compound 0.3162 µM
How it was run: (§1)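 The day after seeding in 1536-well plates, lung cancer cell lines were treated by pin tool with a single drug, or with a fixed anchor-drug dose together with five library-drug doses (not always all listed) in √10 steps. After 5 days, a combined fix-and-stain solution (final 0.05% Triton X-100, 1% formaldehyde, 1 ug/ml Hoechst) was added. Nuclei counted on 4× images gave relative viability as treated counts over vehicle counts, reported as the median of duplicate plates.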

| Cell Line | relative viability |
| --- | --- |
| LU99A | 0.389 |
| NCI-H460 | 0.341 |
| NCI-H2170 | 0.639 |
| SK-LU-1 | 0.159 |
| COR-L23 | 0.443 |
| NCI-H1944 | 0.192 |
| EMC-BAC-2 | 0.209 |
| NCI-H2085 | 0.515 |
| NCI-H727 | 0.724 |
| NCI-H647 | 0.0963 |
| HARA | 0.195 |
| NCI-H3122 | 0.841 |
| NCI-H358 | 0.22 |
| LCLC-97TM1 | 1.05 |
| NCI-H520 | 0.203 |
| NCI-H23 | 0.737 |
| HCC-827 | 0.399 |
| NCI-H2347 | 0.692 |
| LXF-289 | 0.0972 |
| NCI-H1666 | 0.644 |
| RERF-LC-KJ | 0.586 |

Same assay, conditions: first compound 1 µM

| Cell Line | relative viability |
| --- | --- |
| A-427 | 0.581 |
| NCI-H2009 | 0.254 |
| ABC-1 | 0.567 |
| EKVX | 0.515 |
| NCI-H2087 | 0.897 |
| NCI-H1734 | 0.432 |
| LCLC-103H | 0.388 |
| LU99A | 0.431 |
| NCI-H460 | 0.537 |
| NCI-H2170 | 0.54 |
| SK-LU-1 | 0.185 |
| COR-L23 | 0.482 |
| HCC-15 | 0.726 |
| NCI-H1944 | 0.199 |
| EMC-BAC-2 | 0.337 |
| NCI-H1792 | 0.815 |
| NCI-H1395 | 0.403 |

| Cell Line | relative viability |
| --- | --- |
| LC-2-ad | 0.559 |
| NCI-H2085 | 0.256 |
| NCI-H727 | 0.421 |
| NCI-H647 | 0.188 |
| HARA | 0.201 |
| NCI-H3122 | 0.712 |
| NCI-H358 | 0.203 |
| COR-L 105 | 0.316 |
| LCLC-97TM1 | 0.685 |
| NCI-H520 | 0.197 |
| NCI-H23 | 0.434 |
| HCC-827 | 0.348 |
| NCI-H2347 | 0.346 |
| LXF-289 | 0.181 |
| NCI-H1666 | 0.709 |
| RERF-LC-KJ | 0.786 |
| NCI-H650 | 0.395 |

Compound: COc1cccc2cc(-c3nc([C@H]4CC[C@H](C(=O)O)CC4)n4ncnc(N)c34)[nH]c12 [OSI-027] + CS(=O)(=O)N1CCN(Cc2cc3nc(-c4cccc5[nH]ncc45)nc(N4CCOCC4)c3s2)CC1 [Pictilisib] (partner 1 µM)
Assay: as above
Conditions: first compound 0.01 µM
How it was run: as §1

| Cell Line | relative viability |
| --- | --- |
| A-427 | 0.61 |
| NCI-H2009 | 0.885 |
| ABC-1 | 0.627 |
| EKVX | 0.456 |
| NCI-H2087 | 0.794 |
| NCI-H1734 | 0.455 |
| LCLC-103H | 0.588 |
| LU99A | 0.315 |
| NCI-H460 | 0.274 |
| NCI-H2170 | 0.284 |
| SK-LU-1 | 0.529 |
| COR-L23 | 0.834 |
| HCC-15 | 0.768 |
| NCI-H1944 | 0.369 |
| EMC-BAC-2 | 0.597 |
| NCI-H1792 | 0.288 |
| NCI-H1395 | 0.559 |
| LC-2-ad | 0.427 |
| NCI-H2085 | 0.436 |
| NCI-H727 | 0.3 |
| NCI-H647 | 0.395 |
| HARA | 0.334 |
| NCI-H3122 | 0.603 |
| NCI-H358 | 0.334 |
